The test system of the assay is Plasmodium falciparum. The assay is described as follows: GSK_TCMDC: Inhibition of Plasmodium falciparum 3D7 in whole erythrocytes, using parasite LDH activity as an index of growth. The format is functional, organism-based. The following applies: Plasmodium falciparum, 3D7.
The compound `CCN1CCC(N(Cc2ccc(-c3ccc(C(F)(F)F)cc3)cc2)C(=O)Cn2c(SCc3ccc(F)cc3)nc(=O)c3c2CCC3)CC1` had an XC50 of 991 nM.

On to `CCN1CCC(N(Cc2ccc(-c3ccc(Cl)cc3)cc2)C(=O)Cn2c(CCc3cccc(F)c3F)cc(=O)c3ccccc32)CC1`, for which the XC50 turned out to be 703 nM.

In turn, `CC1CC(C)CN(CCCNc2ccc(C(=O)Nc3ccc(C(F)(F)F)cc3)cc2[N+](=O)[O-])C1` (configuration not stated) registered an XC50 of 203 nM.

Regarding `Clc1ccc(CNC2CCN(CC3CCCCC3)CC2)cc1`, the XC50 was 1110 nM.

`FC(F)(F)c1ccc2[nH]c(-c3ccc(-c4cccc(CNCCc5ccncc5)c4)s3)nc2c1` yielded an XC50 of 117 nM.

`C#CCN1CCC2=C(C1)c1c(O)cc(C(C)C(C)CCc3ccc(F)cc3)cc1OC2(C)C` (configuration not stated) had an XC50 of 175 nM.

`CCCN1CCN(CCCNC(=O)c2cc3c(-c4ccc(Cl)cc4)nn(C)c3s2)CC1` returned an XC50 of 1100 nM.

For `CC(C)C[C@H](NC(=O)c1ccc(OCCN2CCOCC2)cc1)C(=O)NC(/C=N/N1CCCC1=O)C(C)C` (some centres not stated), the XC50 is 248 nM.

Take `CN1CCN(Cc2ccc(OCc3cccc(COc4ccc(CN5CCN(C)CC5)cc4I)c3)c(I)c2)CC1`: the XC50 was 1010 nM.

`Cc1cc(=NN=Cc2ccccc2F)c2cc(F)ccc2[nH]1` gave an XC50 of 299 nM.

For `Nc1nc(N)c2c(ccc3c2cnn3Cc2cccnc2)n1`, the XC50 came to 48.1 nM.

Take `Cc1c(C)n(C2CCCCC2)c2ncnc(OC3CCN(CC(=O)NC4CC4)CC3)c12`: the XC50 amounted to 1240 nM.

Compound `COc1cc2nc(N3CCC(CNC(=O)c4ccc(-c5ccc(C#N)cc5C)cc4)CC3)nc(N)c2cc1OC` returned an XC50 of 180 nM.

For the compound `FC(F)(F)c1ccc2[nH]c(-c3cccc(-c4cccc(CNCc5cnn(-c6ccccc6)n5)c4)c3)nc2c1`, the XC50 was determined as 552 nM.

Compound `CCCCOc1ccc(-c2nc3ccccc3[nH]2)cc1` had an XC50 of 865 nM.

`c1cncc(CCNCc2cccc(-c3ccc(-c4nc5ccccc5[nH]4)s3)c2)c1` registered an XC50 of 202 nM.

`O=C(Nc1cn(-c2ccc(OCc3cccc(F)c3)c(Cl)c2)c2ncncc12)c1ccncc1` gave an XC50 of 171 nM.

In the case of `CC(=O)Nc1ccc(C(=O)Nc2ccc(-c3cccc(-c4nc5cc(C(F)(F)F)ccc5[nH]4)c3)cc2)cn1`, the XC50 amounted to 111 nM.

In turn, `Fc1ccc2[nH]c(-c3ccc(-c4ccc(CN5CCC(CCN6CCCCC6)CC5)cc4)s3)nc2c1` came in with an XC50 of 142 nM.

Compound `Cc1cc(N(C)CCCN(C)C)nc(Nc2ccc(Br)cc2)n1` had an XC50 of 643 nM.

In turn, `Cc1nc2nc(N)nc(N)c2c(C)c1Cc1cccc(C(N)=O)c1` came in with an XC50 of 1080 nM.

The compound `O=C(NC1CCN(Cc2ccccc2)CC1)c1cc(-c2ccncc2)c(-c2ccc(Cl)c(O)c2)o1` showed an XC50 of 407 nM.

In the case of `Cc1[nH]c(C)c(-c2ccc(Br)cc2)c(=O)c1Cl`, the XC50 is 844 nM.

`COc1ccc(/C=C/C(=O)Nc2ccc(-c3ccncc3)cc2)cc1CCCN(C)C` returned an XC50 of 753 nM.

`CCCCOc1cc(C)nc2ccc(NC(=O)COCC(=O)Nc3ccc4nc(C)cc(OCCCC)c4c3)cc12` came in with an XC50 of 1000 nM.

Turning to `CC(C)(C)c1ccc(CN2CCCCC(NC(=O)c3cc(-c4ccccc4Cl)cs3)C2)cc1` (configuration not stated), the XC50 was 1120 nM.

As for `O=C(Nc1cccc(C(F)(F)F)c1)c1ccc(S(=O)(=O)NCC2CCCN(CC3CCCCC3)C2)cc1` (configuration not stated), the XC50 is 899 nM.

For `Nc1c2c(nc3ccc(NC(=O)c4ccc([N+](=O)[O-])cc4)cc13)CCCC2`, the XC50 turned out to be 237 nM.

The compound `CC(=O)N(Cc1nc(-c2cc(C(F)(F)F)cc(C(F)(F)F)c2)cs1)c1c(C)cccc1C` had an XC50 of 107 nM.

The compound `O=C(Nc1ccc(NC2=NCCN2)cc1)c1ccc(C(=O)Nc2ccc(NC3=NCCN3)cc2)cc1` yielded an XC50 of 649 nM.

`COc1ccc(Cl)cc1N1CCN(CCCNC(=O)c2ccc(-c3nc4cnccc4[nH]3)c(Br)c2)CC1` returned an XC50 of 1150 nM.

`Cc1ccc2c(c1)c(-c1ccccc1)c(-c1ccccc1)n2CC(O)CN1CCN(CC=Cc2ccccc2)CC1` (configuration not stated): the XC50 amounted to 782 nM.

With `CC(=O)Nc1ccc(COc2ccc(Nc3ccnc4cc(-c5ccccn5)ccc34)cc2)cc1`, the XC50 was 196 nM.

The compound `CC(C)(CN)c1cc(-c2ccc(Cl)c(O)c2)c(-c2ccncc2)o1` yielded an XC50 of 1140 nM.

`CCNC(=O)c1ccc(-n2nc(C)cc2-c2ccccc2)cc1` gave an XC50 of 1120 nM.

Take `O=C(Nc1ccc(Cl)cc1)N[C@H]1CCN(Cc2ccc(OCCCN3CCCCC3)cc2)C1`: the XC50 turned out to be 671 nM.

Compound `CC(C)NCc1cccc(-c2cccc(NC(=O)c3cccc(Cl)c3)c2)c1` returned an XC50 of 592 nM.

As to `COCCNCc1ccc(-c2ccc3c(Nc4ccc(Cl)cc4F)ccnc3c2)o1`, the XC50 was found to be 206 nM.

Compound `CC(=NNC(S)=NCCc1ccccn1)c1ccccn1` registered an XC50 of 319 nM.

`CCc1cccc(OCC2CCCN(c3ccc(C(=O)NC4CC4)cn3)C2)c1` (configuration not stated) had an XC50 of 1440 nM.

Regarding `COC(=O)c1ccc(OCC(O)CO)cc1O` (configuration not stated), the XC50 stood at 738 nM.

Turning to `CCOC(=O)NCCSC(C)(C)[C@H](NC(=O)[C@H](Cc1cc2ccccc2s1)[C@H](CC)N(O)C=O)C(=O)Nc1nccs1`, the XC50 is 296 nM.

As for `CCC(C)(CC)C(=O)n1ncc2c3c(N)nc(N)nc3ccc21`, the XC50 was 6 nM.

Regarding `Cc1cc(Br)cnc1CCCCNc1cc(=O)c2ccccc2[nH]1`, the XC50 was found to be 1160 nM.

`COc1ccc2nccc([C@@H](O)CN3CCC(NC(=O)C(c4ccccc4C)N4CCC(Cc5ccccc5)CC4)CC3)c2c1` (some centres not stated) came in with an XC50 of 261 nM.

`CCOc1cc(Cl)c(C(C)NC(=O)c2ccccc2)cc1OCC` (configuration not stated) displayed an XC50 of 875 nM.

For `N#Cc1ccc(CN2CCCN(Cc3cccc(NC(=O)c4ccc(-c5ccccc5)cc4)c3)CC2)cc1`, the XC50 was found to be 1020 nM.

Compound `Cc1cc(Cl)ccc1OC(C)C(=O)N1CCc2ccccc21` (configuration not stated) gave an XC50 of 668 nM.

The compound `CCOc1ccc2c(=NN=Cc3cc(OC)c(OC)cc3OC)cc(C)[nH]c2c1` displayed an XC50 of 997 nM.

Consider `CC(C)c1ccc(NC(=O)c2cccc(CN3CCCN(Cc4cccc(O)c4)CC3)c2)cc1`, for which the XC50 stood at 772 nM.

On to `COc1ccccc1CCNc1nccc(N[C@@H](Cc2ccccc2)C(=O)NCc2cccs2)n1`, for which the XC50 is 871 nM.

On to `O=C(Nc1cccc(CN2CCCN(Cc3ccc(F)cc3)CC2)c1)c1ccc(Cl)c(Cl)c1`, for which the XC50 was 958 nM.

In the case of `CCOc1cc(C(=O)NC2CC(C)(C)N(C)C(C)(C)C2)ccc1-c1nc2cc(Cl)c(Cl)cc2[nH]1`, the XC50 came to 861 nM.

On to `CCOc1ccccc1C=CC(=O)Nc1ccc2nc(N3CCN(C)CC3)cc(C)c2c1`, for which the XC50 stood at 273 nM.

In the case of `C=CCn1c(=N)n(CC(O)c2ccc(Cl)c(Cl)c2)c2ccccc21` (configuration not stated), the XC50 amounted to 338 nM.

On to `CCc1cn2c3c(cc(C(=O)N[C@@H](Cc4ccccc4)[C@H](O)CNC(C)C)cc13)N(C)S(=O)(=O)C2`, for which the XC50 stood at 317 nM.

The compound `CN1CCN(c2cc(-c3cccnc3)nc(-c3ccncc3)n2)CC1` registered an XC50 of 554 nM.

Compound `COc1ccc(-c2nnc(Sc3ccc(C#N)c([N+](=O)[O-])c3)n2CCC(C)C)cc1` yielded an XC50 of 1110 nM.

In turn, `COc1cccc2cc(C(=O)N[C@@H](CC(C)C)C(=O)N[C@H](C=NNC(=O)OC(C)(C)C)Cc3ccccc3)oc12` showed an XC50 of 304 nM.

For `CC(=O)N1Cc2ccccc2C1=O`, the XC50 came out at 522 nM.

With `CC(=O)Nc1cccc(-c2cn(-c3ccc(OCc4cccc(F)c4)c(Cl)c3)c3ncncc23)c1`, the XC50 worked out at 70.9 nM.

The compound `CCNc1cc(C(=O)N[C@@H](Cc2ccccc2)[C@H](O)CNCCc2cccc(C(F)(F)F)c2)cc(N2CCCC2=O)c1` returned an XC50 of 879 nM.

The values above are taken from ChEMBL document CHEMBL1157539, “Thousands of chemical starting points for antimalarial lead identification” (Nature, 2010).
